In patent US20150010928A1, “MEANS AND METHODS FOR ASSESSING AN ENDOCRINE DISEASE OR DISORDER” (priority 2012, published 2015):
Marks after values point to notes of the source that are not given here.

System: female rats
Test: Plasma metabolite profiling (GC-MS, LC-MS, SPE-LC-MS) in female rats dosed once daily over 28 days (OECD 407)
Type: in vivo, rat
Parameters: key to TAG No 07 / Lysophosphatidylcholine (C17:0): ratio of treated group mean to untreated control group mean; key to 5-O-Methylsphingosine (d18:1) / Isopalmitic acid (C16:0) / Valine / Alanine / Ketoleucine / Serine / Lactate / Arginine: ratio of treated group mean to untreated control mean
Conditions: high dose; for Isopalmitic acid (C16:0): Table 17a; for Alanine / Arginine / Ketoleucine / Lactate / Proline / Serine / Valine: Table 17b; for 3-O-Methylsphingosine (d18:1) / 5-O-Methylsphingosine (d18:1) / 16-Methylheptadecanoic acid / Arachidonic acid (C20:cis[5,8,11,14]4) / Ceramide (d18:1, C24:1) / Ceramide (d18:1,C24:0) / Cholesterol / Cholesterolester No 01 / Dodecanol / Elaidic acid (C18:trans[9]1) / Galactose, lipid fraction / Glycerol phosphate, lipid fraction / Heptadecanoic acid (C17:0) / Lignoceric acid (C24:0) / Lysophosphatidylcholine (C17:0) / Phosphate, lipid fraction / Phosphatidylcholine (C18:0, C20:3) / Phytosphingosine / Sphingomyelin (d18:1, C16:0) / Sphingomyelin (d18:1,C24:0) / Sphingomyelin (d18:2, C16:0) / Sphingomyelin (d18:2,C18:0) / Stearic acid (C18:0) / TAG No 07 / Tricosanoic acid (C23:0) / alpha-Tocopherol / beta-Sitosterol / erythro-Sphingosine (d18:1) / myo-Inositol, lipid fraction / myo-Inositol-2-phosphate, lipid fraction / threo-Sphingosine (d18:1): Table 13b
Description: Each dose group in the studies consisted of five rats per sex. Additional groups of each 5 male and female animals served as controls. […] All animals of the animal population were kept under the same constant temperature (20-24±3° C.) and the same constant humidity (30-70%). The animals of the animal population were fed ad libitum. The food to be used was essentially free of chemical or microbial contaminants. Drinking water was also offered ad libitum. Accordingly, the water was free of chemical and microbial contaminants as laid down in the European Drinking Water Directive 98/83/EG. The illumination period was 12 hours light followed by 12 hours darkness (12 hours light, from 6:00 to 18:00, and 12 hours darkness, from 18:00 to 6:00). […] The test substances (compounds) in the Tables 1 to 17 below were dosed and administered as described in the Table 18.
In the morning of day 7, 14, and 28, blood was taken from the retroorbital venous plexus from fasted anaesthetized animals. From each animal, 1 ml of blood was collected with EDTA as anticoagulant. The samples were centrifuged for generation of plasma. All plasma samples were covered with a N2 atmosphere and then stored at −80° C. until analysis.
For mass spectrometry-based metabolite profiling analyses plasma samples were extracted and a polar and a non-polar (lipid) fraction was obtained. For GC-MS analysis, the non-polar fraction was treated with methanol under acidic conditions to yield the fatty acid methyl esters. Both fractions were further derivatised with O-methyl-hydroxyamine hydrochloride and pyridine to convert Oxogroups to O-methyloximes and subsequently with a silylating agent before analysis. In LC-MS analysis, both fractions were reconstituted in appropriate solvent mixtures. HPLC was performed by gradient elution on reversed phase separation columns. Mass spectrometric detection which allows target and high sensitivity MRM (Multiple Reaction Monitoring) profiling in parallel to a full screen analysis was applied as described in WO2003073464.
Steroids and their metabolites were measured by online SPE-LC-MS (Solid phase extraction-LC-MS).
Following comprehensive analytical validation steps, the data for each analyte were normalized against data from pool samples. These samples were run in parallel through the whole process to account for process variability. The significance of treatment group values specific for sex, treatmentduration and metabolite was determined by comparing means of the treated groups to the means of the respective untreated control groups using WELCH-test and quantified with treatment ratios versus control and p-values.
The identification of the most important biomarkers per toxicity pattern was done by a ranking of the analytes in the tables below. Therefore the metabolic changes in reference treatments of a given pattern (shown in the table) were compared with changes of the same metabolite in other unrelated treatments. […] The maximum absolute value of the respective TVALUE was taken to indicate the most important metabolite for the pattern.

In the case of CN(N=O)C(=O)N[C@H]1C(O)O[C@H](CO)[C@@H](O)[C@@H]1O (mixture of isomers) [Streptozotocin], the “Isopalmitic acid (C16:0)” value (f7, female rats) is reported as 0.99, the Alanine (f7, female rats) is reported as 0.79 and the Arginine (f7, female rats) is reported as 0.78. For the same compound, the Ketoleucine (f7, female rats) was 0.85, the Lactate (f7, female rats) was 0.77 and the Proline (f7, female rats) was 0.81. The Serine (f7, female rats) was 0.88, the Valine (f7, female rats) was 0.77 and the “Isopalmitic acid (C16:0)” value (f14, female rats) was 1.12 *. It also gave an Alanine (f14, female rats) of 0.91, an Arginine (f14, female rats) of 0.88 and a Ketoleucine (f14, female rats) of 0.9. The Lactate (f14, female rats) was 0.83, the Proline (f14, female rats) was 0.83 and the Serine (f14, female rats) was 0.83. For the same compound, the Valine (f14, female rats) was 0.85, the “Isopalmitic acid (C16:0)” value (f28, female rats) was 1.3 * and the Alanine (f28, female rats) was 0.87. It also gave an Arginine (f28, female rats) of 1.03, a Ketoleucine (f28, female rats) of 0.87 and a Lactate (f28, female rats) of 0.57. The Proline (f28, female rats) was 0.9, the Serine (f28, female rats) was 0.98 and the Valine (f28, female rats) was 0.98.
In the case of C=CCN1C[C@H](C(=O)N(CCCN(C)C)C(=O)NCC)C[C@@H]2c3cccc4[nH]cc(c34)C[C@H]21 [Cabergoline], the “3-O-Methylsphingosine (d18:1)” value (f7) is reported as 0.68 *, the “5-O-Methylsphingosine (d18:1)” value (f7) is reported as 0.66 * and the 16-Methylheptadecanoic acid (f7) is reported as 0.57 *. For the same compound, the “Arachidonic acid (C20:cis[5,8,11,14]4)” value (f7) was 0.71 *, the “Ceramide (d18:1, C24:1)” value (f7) was 0.57 * and the “Ceramide (d18:1,C24:0)” value (f7) was 0.53 *. For the same compound, the Cholesterol (f7) was 0.72 *, the “Cholesterolester No 01” value (f7) was 0.84^ and the Dodecanol (f7) was 0.84 *. For the same compound, the “Elaidic acid (C18:trans[9]1)” value (f7) was 0.66 *, the “Galactose, lipid fraction” value (f7) was 0.79^ and the “Glycerol phosphate, lipid fraction” value (f7) was 0.72 *. The “Heptadecanoic acid (C17:0)” value (f7) was 0.85^, the “Lignoceric acid (C24:0)” value (f7) was 0.54 * and the “Lysophosphatidylcholine (C17:0)” value (f7) was 0.83 *. For the same compound, the “Phosphate, lipid fraction” value (f7) was 0.73 *, the “Phosphatidylcholine (C18:0, C20:3)” value (f7) was 0.85 * and the Phytosphingosine (f7) was 0.64 *. The “Sphingomyelin (d18:1, C16:0)” value (f7) was 0.94^, the “Sphingomyelin (d18:1,C24:0)” value (f7) was 0.84 * and the “Sphingomyelin (d18:2, C16:0)” value (f7) was 0.67 *. The “Sphingomyelin (d18:2,C18:0)” value (f7) was 0.89 *, the “Stearic acid (C18:0)” value (f7) was 0.79 * and the “TAG No 07” value (f7) was 0.91^. For the same compound, the “Tricosanoic acid (C23:0)” value (f7) was 0.71 *, the alpha-Tocopherol (f7) was 0.82^ and the beta-Sitosterol (f7) was 0.46 *. The “erythro-Sphingosine (d18:1)” value (f7) was 0.66 *, the “myo-Inositol, lipid fraction” value (f7) was 0.87 * and the “myo-Inositol-2-phosphate, lipid fraction” value (f7) was 0.61 *. The “threo-Sphingosine (d18:1)” value (f7) was 0.75 *, the “3-O-Methylsphingosine (d18:1)” value (f14) was 0.36 * and the “5-O-Methylsphingosine (d18:1)” value (f14) was 0.34 *. The 16-Methylheptadecanoic acid (f14) was 0.59 *, the “Arachidonic acid (C20:cis[5,8,11,14]4)” value (f14) was 0.32 * and the “Ceramide (d18:1, C24:1)” value (f14) was 0.6 *. The “Ceramide (d18:1,C24:0)” value (f14) was 0.57 *, the Cholesterol (f14) was 0.36 * and the “Cholesterolester No 01” value (f14) was 0.79 *. The Dodecanol (f14) was 0.44 *, the “Elaidic acid (C18:trans[9]1)” value (f14) was 0.5 * and the “Galactose, lipid fraction” value (f14) was 0.48 *. For the same compound, the “Glycerol phosphate, lipid fraction” value (f14) was 0.34 *, the “Heptadecanoic acid (C17:0)” value (f14) was 0.61 * and the “Lignoceric acid (C24:0)” value (f14) was 0.33 *. The “Lysophosphatidylcholine (C17:0)” value (f14) was 0.72 *, the “Phosphate, lipid fraction” value (f14) was 0.57 * and the “Phosphatidylcholine (C18:0, C20:3)” value (f14) was 0.72 *. The Phytosphingosine (f14) was 0.55 *, the “Sphingomyelin (d18:1, C16:0)” value (f14) was 0.79 * and the “Sphingomyelin (d18:1,C24:0)” value (f14) was 0.62 *. The “Sphingomyelin (d18:2, C16:0)” value (f14) was 0.58 *, the “Sphingomyelin (d18:2,C18:0)” value (f14) was 0.67 * and the “Stearic acid (C18:0)” value (f14) was 0.42 *. The “TAG No 07” value (f14) was 0.73 *, the “Tricosanoic acid (C23:0)” value (f14) was 0.55 * and the alpha-Tocopherol (f14) was 0.4 *. The beta-Sitosterol (f14) was 0.3 *, the “erythro-Sphingosine (d18:1)” value (f14) was 0.37 * and the “myo-Inositol, lipid fraction” value (f14) was 0.48 *. The “myo-Inositol-2-phosphate, lipid fraction” value (f14) was 0.31 *, the “threo-Sphingosine (d18:1)” value (f14) was 0.44 * and the “3-O-Methylsphingosine (d18:1)” value (f28) was 0.11 *. The “5-O-Methylsphingosine (d18:1)” value (f28) was 0.13 *, the 16-Methylheptadecanoic acid (f28) was 0.28 * and the “Arachidonic acid (C20:cis[5,8,11,14]4)” value (f28) was 0.16 *. The “Ceramide (d18:1, C24:1)” value (f28) was 0.39 *, the “Ceramide (d18:1,C24:0)” value (f28) was 0.36 * and the Cholesterol (f28) was 0.16 *. The “Cholesterolester No 01” value (f28) was 0.56 *, the Dodecanol (f28) was 0.27 * and the “Elaidic acid (C18:trans[9]1)” value (f28) was 0.33 *. The “Galactose, lipid fraction” value (f28) was 0.24 *, the “Glycerol phosphate, lipid fraction” value (f28) was 0.19 * and the “Heptadecanoic acid (C17:0)” value (f28) was 0.47 *. For the same compound, the “Lignoceric acid (C24:0)” value (f28) was 0.15 *, the “Lysophosphatidylcholine (C17:0)” value (f28) was 0.57 * and the “Phosphate, lipid fraction” value (f28) was 0.36 *. For the same compound, the “Phosphatidylcholine (C18:0, C20:3)” value (f28) was 0.59 *, the Phytosphingosine (f28) was 0.34 * and the “Sphingomyelin (d18:1, C16:0)” value (f28) was 0.51 *. The “Sphingomyelin (d18:1,C24:0)” value (f28) was 0.36 *, the “Sphingomyelin (d18:2, C16:0)” value (f28) was 0.33 * and the “Sphingomyelin (d18:2,C18:0)” value (f28) was 0.3 *. The “Stearic acid (C18:0)” value (f28) was 0.28 *, the “TAG No 07” value (f28) was 0.4 * and the “Tricosanoic acid (C23:0)” value (f28) was 0.23 *. For the same compound, the alpha-Tocopherol (f28) was 0.16 *, the beta-Sitosterol (f28) was 0.13 * and the “erythro-Sphingosine (d18:1)” value (f28) was 0.13 *. The “myo-Inositol, lipid fraction” value (f28) was 0.23 *, the “myo-Inositol-2-phosphate, lipid fraction” value (f28) was 0.08 * and the “threo-Sphingosine (d18:1)” value (f28) was 0.24 *.
With CCOC(=O)C(C)(C)Oc1ccc(Cl)cc1 [Clofibrate] the “Isopalmitic acid (C16:0)” value (f7, female rats) was 0.83 *, the Alanine (f7, female rats) was 0.63 and the Arginine (f7, female rats) was 0.74. For the same compound, the Ketoleucine (f7, female rats) was 1.04, the Lactate (f7, female rats) was 1.22 and the Proline (f7, female rats) was 0.81. For the same compound, the Serine (f7, female rats) was 0.85, the Valine (f7, female rats) was 0.91 and the “Isopalmitic acid (C16:0)” value (f14, female rats) was 0.84. For the same compound, the Alanine (f14, female rats) was 0.72, the Arginine (f14, female rats) was 0.93 and the Ketoleucine (f14, female rats) was 0.94. It also gave a Lactate (f14, female rats) of 0.66, a Proline (f14, female rats) of 0.88 and a Serine (f14, female rats) of 0.98. For the same compound, the Valine (f14, female rats) was 0.94, the “Isopalmitic acid (C16:0)” value (f28, female rats) was 1.53 * and the Alanine (f28, female rats) was 0.84. The Arginine (f28, female rats) was 0.92, the Ketoleucine (f28, female rats) was 0.88 and the Lactate (f28, female rats) was 0.83. It also gave a Proline (f28, female rats) of 0.85, a Serine (f28, female rats) of 1.03 and a Valine (f28, female rats) of 1.14.
